Experimental data: patent publication US20210205348A1, “Methods for the Treatment of Bladder Cancer” (Eisai R&D Management Co., Ltd., priority 2018, published 2021)

Columns and labels:
IFNβ = test: Ex vivo human PBMC stimulation assay, IFNβ protein; type: cell-based; settings: 24 hours, average of five donors
Method: Human blood from 5 healthy donors was collected using 10.0 mL BD Vacutainer Sodium heparin tubes (cat #367874). Peripheral blood mononuclear cell (PBMC) isolation was done using SIGMA ACCUSPIN 50 ml Tubes (cat #A2055) and sigma ACCUSPIN System-HISTOPAQUE-1077 (cat #A7054) using protocol provided by manufacturer. […] PBMC were counted and finally suspended @ 1x10e6/ml in RPMI (corning cat #10-041-CV supplemented with 10% fetal bovine serum (FBS) (Gibco cat #20140.79). 1ml of cell (1×10e6) were transferred into Falcon 5 mL Round Bottom Polypropylene Test Tube (cat #352063) and stimulated with different concentrations (0, 0.1, 1, 10 uM) for 24 hours in 5% CO2 incubator at 37° C.
After 24 hours of incubation the tubes were centrifuged at 1400 rpm for 5 minutes and supernatants were harvested. Supernatant were stored in −80° C. for subsequent IFNβ measurement. IFNβ measurement was done using Human IFN-β Base Kit (Meso Scale Diagnostics cat #K151ADA) and protocol provided by manufacturer was used. IFN-beta estimation was done by reading assay plate at MESO SECTOR Imager 2400 and using MSD Discovery Workbench 4.0 program. After 24 hours IFNβ protein was analyzed.
Results shown in Table 3 reflect an average of measurements conducted using five different donors.

MBT-2 tumor cells = test: MBT-2 murine bladder cancer orthotopic model; type: in vivo, mouse
Method: The protocol with HCl pre-treatment procedure described by Lee, et al. was applied to establish the model. In brief, 30 μL 0.1 N HCl solution was injected into mouse bladder through a catheter and HCl solution was allowed to remain in the bladder for 15 seconds. Then the HCl solution was replaced by 30 μL 0.1N NaOH solution followed by one flushing step with 1 X PBS (pH7.4). The follow-up tumor cell implantation procedure was modified from the original literature. In brief, after a flushing step, MBT-2 tumor cells (2 ×10^6 cells in 50 μL RPMI1640 medium) were instilled into the bladder and allowed to remain for 45 minutes. At the end of this 45 minute period, the bladder was drained.
On each day of dosing BCG was diluted in NaCl 0.9% (Lavoisier, France) to reach the final concentration of 16.875 mg/mL for dosing. Any leftover dosing solution was discarded after use. For anti-PD-1 antibody, 1 x PBS (Lonza, France) was used to dilute the stock solution to prepare 1 mg/mL working solution for dosing.
From days 20-21, tumor growth in bladder was quantitated by MRI (Magnetic resonance imaging) and tumor sizes of all mice were graphed as shown in FIG. 7.

GL261 mouse glioma cells = test: GL261 brain orthotopic model; type: in vivo; settings: 10 mg/kg intratumorally, a single time
Source text: GL261 is a murine glioma cell line.

[1] = system: hepatocytes of Beagle dog; test: Hepatocyte incubation, identification of potential metabolites; type: in vitro ADME; settings: 10 μmol/L
Method: (§1) Prior to incubations, the cryopreserved hepatocytes were thawed in a water bath at 37° C. One tube of cryopreserved hepatocytes was added to each 50-mL conical tube of cryopreserved hepatocyte recovery medium (UCRM) obtained from In Vitro ADMET Laboratories (Columbia, Md.). The cells were spun in a Beckman centrifuge (Brea, Calif.) with a GH 3.8 rotor at 740 rpm for 10 minutes at […]. The supernatant was removed and the cells were re-suspended in plating media for counting. After the cells were re-suspended in plating media, 20 μL of the re-suspension was transferred and mixed with 20 μL of AOPI staining solution. The solution was gently mixed and cells were counted using a Cellometer (Nexcelom, Lawrence, Mass.). After counting, the cells were then re-suspended at 1 or 2 million viable cells/mL in Williams' E media containing 2 mmol/L L-glutamine (pH 7.4).
(§2) The hepatocyte suspension (50 μL/well) was added into a 48-well plate. […] The plate was placed into a tissue culture incubator (5% CO2/95% air humidified atmosphere and 37° C.), and the reactions were terminated with 200 μL of stop solution consisting of 100% methanol/acetonitrile (1/1, v/v) with 2010 ng/mL furosemide and 0.2 μmol/L (R)-propranolol at 5, 30, 60, 120, 180 and 240 minutes. The mixture was centrifuged and filtered, and the supernatant was collected for analysis. The final concentrations of cryopreserved hepatocytes were 1×10^6 cells/mL.
(§3) The LC-MS/MS system was composed of a Shimadzu HPLC and an AB-SCIEX TripleTOF 5600 hybrid quadrupole and TOF mass spectrometer (Framingham, Mass.). The Shimadzu HPLC (Kyoto, Japan), consisted of a communications bus module (CBM-20A), an auto-sampler (SIL-30AC) with an attached rack changer (Rack Changer II) two pumps (LC-30AD) and a column oven (CTO-30A). The mass spectrometer was calibrated using the AB-SCIEX APCI both Negative and Positive Calibration Solutions (Framingham, Mass.). The samples obtained from incubations with hepatocytes were analyzed under both negative and positive scan modes. The basic analytical method and instrumental conditions are summarized below. Modification of the spectrometer settings was dependent on the necessity of the analyte.
(§4) Mass spectrometry data were acquired using AB-Sciex Analyst TF (Version 1.5.1; Framingham, Mass.). Chromatograms and spectra were obtained using AB-Sciex PeakView (Version 2.2.0.1; Framingham, Mass.). The comparison of relative peak areas for extracted ion chromatograms were based on ±0.0002 Da of the expected exact mass-to-charge ratio (m/z) for each analyte of interest.

[2] = system: hepatocytes of CD-1 mouse; test: as above; type: in vitro ADME; settings: 10 μmol/L
Method: as §1, §2, §3, §4

[3] = system: hepatocytes of Cynomoigus monkey; test: as above; type: in vitro ADME; settings: 10 μmol/L
Method: as §1, §2, §3, §4

[4] = system: hepatocytes of Sprague Dawley rat; test: as above; type: in vitro ADME; settings: 10 μmol/L
Method: as §1, §2, §3, §4

hepatocytes of human = test: as above; type: in vitro ADME; settings: 10 μmol/L
Method: as §1, §2, §3, §4

CT26 tumor cells [5] = test: CT26 liver metastatic model; settings: 10 mg/kg intratumorally, a single time
CT26 tumor cells [6] = test: CT26 dual tumor model (mouse colon cancer model)
Method: For study B, treatment was started 8 days (0.6 mg/kg, and 10 mg/kg) after the tumor implantation, when the average tumors reached approximately 120 mm^3.
All the mice in the study have two subcutaneous CT26 tumors. The “treated tumor” indicates the tumor with compound direct administration, while “untreated tumor” indicates the tumor without direct compound administration. Tumor volume was followed throughout the experiment. Tumor volume is measured two times weekly after the start of treatment. Tumor burden is calculated from caliper measurements by the formula for the volume of a prolate ellipsoid (L×W^2)/2 where L and W are the respective orthogonal length and width measurements (mm),

## O=P1(S)OCC2OC3C(F)C2OP(=O)(S)OCC2OC(C(F)C2O1)n1cnc2c(ncnc21)NCC=CCNc1ncnc2c1ncn23 (centres unmarked) [Compound 1a]
IFNβ; 0.1 μM
  IFNβ: 21.3 ± 17.8 pg/mL
IFNβ; 1 μM
  IFNβ: 227.5 ± 62.4 pg/mL
IFNβ; 10 μM
  IFNβ: 540.2 ± 215.0 pg/mL
MBT-2 tumor cells; days 20-21, 100, 200, 400 μg/mouse IVe Q7Dx3, also 400 μg/mouse with PD1 antibody (Groups 4 to 7), vs vehicle, BCG and PD1 antibody groups
  tumor volumes quantified by MRI: much smaller tumor volumes
MBT-2 tumor cells; intravesicular, Q7Dx3 (FIG. 8)
  survival relative to vehicle treated animals: statistically significant survival benefit
GL261 mouse glioma cells
  activity at local sc tumors: potent activity
GL261 mouse glioma cells; into the sc tumor
  curative systemic activity (treated animals): 5 of 8
[1]; dog hepatocytes, LC-MS/MS
  formation of major metabolites: No apparent metabolite
[1]; dog, up to 240 minutes
  stability in incubations with hepatocytes: stable
[2]; mouse hepatocytes, LC-MS/MS
  formation of major metabolites: No apparent metabolite
[2]; mouse, up to 240 minutes
  stability in incubations with hepatocytes: stable
[3]; monkey hepatocytes, LC-MS/MS
  formation of major metabolites: No apparent metabolite
[3]; monkey, up to 240 minutes
  stability in incubations with hepatocytes: stable
[4]; rat hepatocytes, LC-MS/MS
  formation of major metabolites: No apparent metabolite
[4]; rat, up to 240 minutes
  stability in incubations with hepatocytes: stable
Hepatocytes of human; human hepatocytes, LC-MS/MS
  formation of major metabolites: No apparent metabolite
Hepatocytes of human; human, up to 240 minutes
  stability in incubations with hepatocytes: stable
CT26 tumor cells [5]
  activity towards the local sc tumors: potent activity
CT26 tumor cells [5]; into the sc tumor
  curative systemic activity (treated animals): 9 of 10
CT26 tumor cells [6]; 0.6 mg/kg I.T. single dose
  cure rate, treated tumors: 20%
CT26 tumor cells [6]; 10 mg/kg I.T. single dose
  curative effects, untreated tumors: 80%
CT26 tumor cells [6]; 10 mg/kg I.T. single dose, end of study
  animals cured, treated tumors: 100%
CT26 tumor cells [6]; all the lower doses (0.6 to 5 mg/kg) I.T. single dose
  effect on untreated tumors: tumor growth inhibition activity
